These results are taken from ChEMBL document CHEMBL1201862, “PubChem BioAssay data set” (2004).

Test in all cases: NCI anticancer screen, dose series, 48 h
Assay [1] relates to MDA-N.
Assay [2] deals with BT-549.
For assay [3], the system named is M19-MEL.
Assay [4] concerns T47D.
The subject of assay [5] is RXF 631.
Assay [6] relates to KM-20L2.
Assay [7] concerns DMS-273.
Assay [8] deals with XF498.
In assay [9] the test system is LXFL 529.

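Five concentrations, 48 hours, 96-well plates. Abbreviation: GI50, concentration required for 50% inhibition of growth.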 Calls of active or inactive are those of the source. Rule as the data show it: active = GI50 up to about 1.1 µM and inactive = higher.

For `CN(C)CCCNc1ccc2nnn3c4ccc([N+](=O)[O-])cc4c(=O)c1c23`, the GI50 in assay [1] is 2.09 µM (inactive); in [2], 5.26 µM (inactive); in assay [3] it was 3.65 µM (inactive); in assay [4], 11.4 µM (inactive); in [5], 0.723 µM (active); in assay [6], 0.745 µM (active). The GI50 in [7] is 0.685 µM (active); in assay [8], 1.5 µM (inactive); in assay [9] it was 1.22 µM (inactive).
Regarding `O=C1OC(=O)C2C3C=CC(C12)C1C2C=CC2C31` (stereo not given), the GI50 in assay [3] was > 100 µM (inactive); in assay [5], > 100 µM (inactive); in assay [6], > 100 µM (inactive); in assay [7], > 100 µM (inactive); in [8], 42.4 µM (inactive); in assay [9] it was > 100 µM (inactive).
With `CCO/N=[N+](\[O-])N(CC)CC`, the GI50 in assay [3], in [5], in assay [6], in assay [7], in [8] and in assay [9] was > 100 µM (inactive) throughout.
Consider `O=C(CC(=O)c1ccc([N+](=O)[O-])cc1)C(=O)Nc1nccs1`, for which the GI50 in assay [5], in assay [6], in [7], in [8] and in assay [9] was > 100 µM (inactive) throughout.
Turning to `COc1ccc(/C(Cl)=C(\C=O)c2ccc(Cl)cc2)cc1OC`, the GI50 in [3] is 9.12 µM (inactive); in [5], 3.69 µM (inactive); in [6], 7.62 µM (inactive); in assay [7] it was 3.72 µM (inactive); in assay [9], 7.28 µM (inactive).
Regarding `CC1(C)OC(=O)C(c2ccsc2)C(=O)O1`, the GI50 in assay [3], in assay [5], in assay [6], in assay [7], in [8] and in assay [9] was > 100 µM (inactive) in each case.
As for `CCCN(CCCCC(NC(C)=O)C(=O)NCc1ccccc1)C(=O)NC` (stereo not given), the GI50 in assay [3], in assay [5], in [6], in assay [7], in assay [8] and in [9] was > 100 µM (inactive) throughout.
For `O=C(Nc1ccc(C(F)(F)F)cc1[N+](=O)[O-])C(=O)Nn1c(S)nc2ccccc2c1=O`, the GI50 in [3], in [5], in assay [6], in assay [7] and in assay [8] was > 100 µM (inactive) in each case.
Take `CC(=O)/C=C\C(=O)NNS(=O)(=O)c1ccc(C)cc1`: the GI50 in [3], in [5], in assay [6], in [7], in assay [8] and in [9] was > 100 µM (inactive) each time.
`Cc1c(N)nc(C(CC(N)=O)NCC(N)C(N)=O)nc1C(=O)NC(C(=O)NC(C)C(O)C(C)C(=O)NC(C(=O)NCCc1nc(-c2nc(C(=O)NCCCNCCCCN)cs2)cs1)C(C)O)C(OC1OC(CO)C(O)C(O)C1OC1OC(CO)C(O)C(OC(N)=O)C1O)c1c[nH]cn1` (stereo not given): the GI50 is > 10 µM (inactive) in assay [3]; 0.0274 µM (active) in [5]; > 10 µM (inactive) in assay [6]; 0.957 µM (active) in assay [7]; 0.0413 µM (active) in [8]; > 10 µM (inactive) in assay [9].
With `CCC/C(=N\NC(=O)c1cc2ccccc2cc1O)C(CC)C(=O)CCC(=O)N(Cc1ccccc1)Cc1ccccc1` (stereo not given), the GI50 in assay [3] is 18.7 µM (inactive); in assay [5], 38.1 µM (inactive); in assay [6], 43 µM (inactive); in assay [7] it was 18.2 µM (inactive); in assay [9], 29.6 µM (inactive).
